Where two headings read alike, the source gives them in different places.
Legend:
Type in all cases: in vitro ADME
CYP2C9 = CYP2C9 (Homo sapiens, UniProt P11712); test: CYP inhibition in human liver microsomes (Eurofins protocol ITEMG232); parameters: using isoform-specific substrates incubated with human liver microsomes; tissue Eurofins ITEMG232; host or cells: human liver microsomes; settings: probe diclofenac, substrate diclofenac, read-out: CYP2C9 Inh %
Protocol: (§1) The following substrates were used; CYP1A phenacetin, CYP2B6 bupropion, CYP2C8 paclitaxel and amodiaquine, CYP2C9 diclofenac, CYP2C19 omeprazole, CYP2D6 dextromethorphan, CYP3A midazolam and testosterone.
(§2) At the end of the incubation, the formation of metabolite was monitored by HPLC-MS/MS as the peak area response.

CYP3A4&5 = test: CYP inhibition in human liver microsomes (Eurofins protocol ITEMG232), testosterone substrate; settings: probe testosterone, read-out: CYP3A4&5 testosterone Inh %
Protocol: as §1, §2

CYP3A4 = CYP3A4 (Homo sapiens, UniProt P08684); test: CYP inhibition in human liver microsomes (Eurofins protocol ITEMG232), midazolam substrate; parameters: using isoform-specific substrates incubated with human liver microsomes; tissue Eurofins ITEMG232; host or cells: human liver microsomes; settings: probe midazolam, read-out: CYP3A4 midazolam Inh %
Protocol: as §1, §2

CYP1A = molecular target: T1, CYP1A (Homo sapiens, UniProt P05177); test: CYP inhibition in human liver microsomes (Eurofins protocol ITEMG232); settings: probe phenacetin, substrate phenacetin, read-out: CYP1A Inh %
T1 construct: using isoform-specific substrates incubated with human liver microsomes; tissue Eurofins ITEMG232; host or cells: human liver microsomes
T1 sequence (P05177 2-516 limits assumed): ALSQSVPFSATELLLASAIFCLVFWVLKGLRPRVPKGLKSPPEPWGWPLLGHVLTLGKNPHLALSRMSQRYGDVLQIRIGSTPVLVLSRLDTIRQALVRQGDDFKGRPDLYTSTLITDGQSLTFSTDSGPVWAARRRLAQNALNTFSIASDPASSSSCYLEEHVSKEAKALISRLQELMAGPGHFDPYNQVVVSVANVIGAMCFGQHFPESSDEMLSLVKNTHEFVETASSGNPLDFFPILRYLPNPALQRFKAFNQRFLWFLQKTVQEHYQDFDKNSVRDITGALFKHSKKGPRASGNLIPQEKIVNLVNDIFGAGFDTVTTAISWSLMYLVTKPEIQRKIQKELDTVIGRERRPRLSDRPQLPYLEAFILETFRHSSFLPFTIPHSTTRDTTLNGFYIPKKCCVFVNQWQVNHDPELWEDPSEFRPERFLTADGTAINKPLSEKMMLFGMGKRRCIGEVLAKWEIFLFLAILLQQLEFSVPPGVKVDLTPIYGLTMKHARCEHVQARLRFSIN
Protocol: as §1, §2

CYP2D6 = molecular target: T2, CYP2D6 (Homo sapiens, UniProt P10635); test: as above; settings: probe dextromethorphan, substrate dextromethorphan, read-out: CYP2D6 Inh %
T2 construct: tissue Eurofins ITEMG232; host or cells: human liver microsomes
Protocol: as §1, §2

CYP2B6 = molecular target: T3, CYP2B6 (Homo sapiens, UniProt P20813); test: as above; settings: probe bupropion, substrate bupropion, read-out: CYP2B6 Inh %
T3 construct: using isoform-specific substrates incubated with human liver microsomes; tissue Eurofins ITEMG232; host or cells: human liver microsomes
T3 sequence (P20813 1-491): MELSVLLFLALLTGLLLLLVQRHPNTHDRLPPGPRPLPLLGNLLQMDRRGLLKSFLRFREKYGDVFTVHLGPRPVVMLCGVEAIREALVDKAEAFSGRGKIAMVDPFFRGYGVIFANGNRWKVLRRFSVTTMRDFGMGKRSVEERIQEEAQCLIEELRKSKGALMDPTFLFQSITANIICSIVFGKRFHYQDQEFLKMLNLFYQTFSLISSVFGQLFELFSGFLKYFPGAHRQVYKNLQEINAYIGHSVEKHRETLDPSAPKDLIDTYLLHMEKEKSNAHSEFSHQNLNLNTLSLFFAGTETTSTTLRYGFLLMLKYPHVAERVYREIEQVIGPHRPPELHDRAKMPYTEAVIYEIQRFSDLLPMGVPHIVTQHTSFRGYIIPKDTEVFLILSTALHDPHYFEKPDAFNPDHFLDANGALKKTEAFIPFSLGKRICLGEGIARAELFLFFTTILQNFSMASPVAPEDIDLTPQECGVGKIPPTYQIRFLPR
Protocol: as §1, §2

CYP2C19 = molecular target: T4, CYP2C19 (Homo sapiens, UniProt P33261); test: as above; settings: probe omeprazole, substrate omeprazole, read-out: CYP2C19 Inh %
T4 construct: using isoform-specific substrates incubated with human liver microsomes; tissue Eurofins ITEMG232; host or cells: human liver microsomes
Protocol: as §1, §2

CYP2C8 = molecular target: T5, CYP2C8 (Homo sapiens, UniProt P10632); test: as above; settings: probe paclitaxel and amodiaquine, substrates paclitaxel and amodiaquine, read-out: CYP2C8 Inh %
T5 construct: using isoform-specific substrates incubated with human liver microsomes; tissue Eurofins ITEMG232; host or cells: human liver microsomes
T5 sequence (P10632 1-490): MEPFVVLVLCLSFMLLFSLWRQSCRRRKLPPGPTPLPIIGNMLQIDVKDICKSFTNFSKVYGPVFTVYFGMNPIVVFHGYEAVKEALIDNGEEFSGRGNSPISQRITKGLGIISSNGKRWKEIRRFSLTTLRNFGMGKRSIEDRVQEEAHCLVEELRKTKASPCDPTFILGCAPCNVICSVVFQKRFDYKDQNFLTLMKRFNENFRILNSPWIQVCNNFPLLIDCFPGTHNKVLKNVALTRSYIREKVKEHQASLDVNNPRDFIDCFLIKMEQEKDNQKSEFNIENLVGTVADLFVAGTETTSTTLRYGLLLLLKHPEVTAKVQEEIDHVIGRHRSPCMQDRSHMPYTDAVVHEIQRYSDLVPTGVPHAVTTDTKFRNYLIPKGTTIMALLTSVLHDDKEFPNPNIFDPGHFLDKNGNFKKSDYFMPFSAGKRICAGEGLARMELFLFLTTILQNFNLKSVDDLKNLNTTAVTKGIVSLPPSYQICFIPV
Protocol: as §1, §2

[1] = Metabolic stability in pooled human liver microsomes with or without NADPH; settings: human, pooled human liver microsomes, pooled human liver microsomes 0.5 mg/mL in PBS, 1 uM test compound, 37° C.
Protocol: Pooled human liver microsomes in PBS at a concentration of 0.5 mg/mL was incubated with or without 1 mM NADPH for 70 min at 37° C. Test compound was added after 10 minutes to a final concentration of 1 uM. Samples were withdrawn at 0, 5, 15 and 60 minutes and added to test tubes containing acetonitrile, to stop the reaction, and with terfenadine, used as internal standard. After centrifugation at 10000×g for 5 minutes the supernatant was diluted 1:1 with 1% formic acid. Samples were separated on a reverse phase column and detected by triple quadrupole MSMS (Agilant model 6540). The concentration of the parent compound at the different time points was measured with an external standard curve using terfenadine as internal standard and the initial metabolic rate in the presence or absence of NADPH calculated.

[2] = with 1 mM NADPH, read-out: T1/2, +NaDPH
[3] = without NADPH, read-out: T1/2, no NaDPH

T4 sequence (P33261 whole entry, canonical isoform): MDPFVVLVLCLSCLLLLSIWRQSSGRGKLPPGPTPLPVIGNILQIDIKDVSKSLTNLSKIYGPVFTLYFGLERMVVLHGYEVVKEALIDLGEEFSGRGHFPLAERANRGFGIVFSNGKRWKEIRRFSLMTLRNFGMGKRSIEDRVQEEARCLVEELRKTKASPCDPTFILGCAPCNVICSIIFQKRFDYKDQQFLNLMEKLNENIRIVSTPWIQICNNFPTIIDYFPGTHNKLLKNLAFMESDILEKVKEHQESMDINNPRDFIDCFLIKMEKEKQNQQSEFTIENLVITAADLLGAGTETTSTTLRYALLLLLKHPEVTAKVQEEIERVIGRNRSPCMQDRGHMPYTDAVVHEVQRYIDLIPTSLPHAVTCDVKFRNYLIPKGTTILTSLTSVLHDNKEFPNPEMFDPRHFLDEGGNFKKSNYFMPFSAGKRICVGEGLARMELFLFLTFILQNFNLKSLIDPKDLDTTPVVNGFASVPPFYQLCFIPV
Chain of CYP2C9 (P11712 whole entry, canonical isoform): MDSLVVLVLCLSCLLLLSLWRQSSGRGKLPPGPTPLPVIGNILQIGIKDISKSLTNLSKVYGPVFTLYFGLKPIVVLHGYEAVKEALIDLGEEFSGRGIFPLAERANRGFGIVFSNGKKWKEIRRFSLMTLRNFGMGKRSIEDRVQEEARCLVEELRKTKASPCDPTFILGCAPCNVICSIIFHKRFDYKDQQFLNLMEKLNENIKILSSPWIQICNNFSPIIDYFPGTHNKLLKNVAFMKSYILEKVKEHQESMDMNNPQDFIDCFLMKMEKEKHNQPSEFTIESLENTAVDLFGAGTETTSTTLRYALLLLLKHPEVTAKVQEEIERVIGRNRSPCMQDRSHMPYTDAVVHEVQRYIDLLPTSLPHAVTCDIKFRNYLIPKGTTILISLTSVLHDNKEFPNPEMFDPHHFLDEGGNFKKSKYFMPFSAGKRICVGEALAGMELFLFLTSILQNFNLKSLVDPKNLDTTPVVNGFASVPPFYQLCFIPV
T2 sequence (P10635 whole entry): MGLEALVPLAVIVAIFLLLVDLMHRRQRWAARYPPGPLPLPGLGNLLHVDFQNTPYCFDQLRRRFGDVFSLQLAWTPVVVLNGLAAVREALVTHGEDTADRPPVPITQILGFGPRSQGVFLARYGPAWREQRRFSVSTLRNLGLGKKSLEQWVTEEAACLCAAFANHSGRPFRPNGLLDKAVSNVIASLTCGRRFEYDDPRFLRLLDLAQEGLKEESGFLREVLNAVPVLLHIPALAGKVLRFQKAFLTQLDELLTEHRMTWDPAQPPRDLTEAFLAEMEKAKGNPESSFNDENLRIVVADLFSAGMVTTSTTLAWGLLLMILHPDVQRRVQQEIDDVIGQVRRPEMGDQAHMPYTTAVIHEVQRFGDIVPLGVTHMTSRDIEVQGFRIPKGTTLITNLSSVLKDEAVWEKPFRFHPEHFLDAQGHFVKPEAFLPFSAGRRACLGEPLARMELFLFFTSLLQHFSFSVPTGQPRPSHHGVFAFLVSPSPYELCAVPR
Chain of CYP3A4 (P08684 whole entry, canonical isoform): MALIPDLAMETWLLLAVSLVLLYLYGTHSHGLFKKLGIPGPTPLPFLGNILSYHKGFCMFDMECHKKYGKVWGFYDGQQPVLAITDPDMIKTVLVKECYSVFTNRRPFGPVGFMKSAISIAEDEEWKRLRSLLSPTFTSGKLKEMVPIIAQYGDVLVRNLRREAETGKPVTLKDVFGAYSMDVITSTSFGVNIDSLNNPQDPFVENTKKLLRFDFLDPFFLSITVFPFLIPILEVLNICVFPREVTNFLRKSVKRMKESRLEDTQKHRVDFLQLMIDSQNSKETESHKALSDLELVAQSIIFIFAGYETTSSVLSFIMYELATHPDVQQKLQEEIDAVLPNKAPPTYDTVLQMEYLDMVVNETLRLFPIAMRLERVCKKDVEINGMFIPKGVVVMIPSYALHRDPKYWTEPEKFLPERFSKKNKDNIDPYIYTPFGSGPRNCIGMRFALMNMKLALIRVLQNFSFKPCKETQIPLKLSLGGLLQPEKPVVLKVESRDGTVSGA

Row | inhibition at 10 µM (CYP2C9) [%] | inhibition at 10 µM (CYP3A4&5) [%] | inhibition at 10 µM (CYP3A4) [%] | inhibition at 10 µM (CYP1A) [%] | inhibition at 10 µM (CYP2D6) [%] | inhibition at 10 µM (CYP2B6) [%] | inhibition at 10 µM (CYP2C19) [%] | inhibition at 10 µM (CYP2C8) [%] | half-life at 1 uM [1, 2] [min] | half-life at 1 uM [1, 3] [min] | Compound
1 | 70 | 21 | -15 | 19 | 22 | 41 | 55 | 80 |  |  | CCCCOC(=O)NS(=O)(=O)c1sc(CC(C)C)cc1-c1ccc(Cn2ccnc2C)c(F)c1 [Example 2, Butyl (3-(3-fluoro-4-((2-methyl-1H-imidazol-1-yl)methyl)phenyl)-5-isobutylthiophen-2-yl)sulfonylcarbamate trifluoroacetic acid]
2 | 36.8 | 3.7 | -20.6 | 29.9 | 73.4 | 33.8 | 53.1 | 78.6 |  |  | CC(C)Cc1cc(-c2ccc(Cn3ccnc3C(C)(C)C)c(F)c2)c(S(=O)(=O)NC(=O)OCCO)s1 [Example 17, 2-Hydroxyethyl (3-(4-((2-(tert-butyl)-1H-imidazol-1-yl)methyl)-3-fluorophenyl)-5-isobutylthiophen-2-yl)sulfonylcarbamate]
3 | 57.9 | -4.8 | -56.9 | 46 | 22.3 | 32.6 | 45.6 | 90.5 |  |  | COC(=O)NS(=O)(=O)c1sc(CC(C)C)cc1-c1ccc(Cn2ccnc2C(C)(C)C)c(F)c1 [Example 20, Methyl (3-(4-((2-(tert-butyl)-1H-imidazol-1-yl)methyl)-3-fluorophenyl)-5-isobutylthiophen-2-yl)sulfonylcarbamate]
4 | 51.4 | 8 | -48 | 58.7 | 16.3 | 16.6 | 13.8 | 44.2 | > 60 | > 60 | COC(=O)NS(=O)(=O)c1sc(CC(C)C)cc1-c1ccc(Cn2ccnc2C)c(F)c1 [Example 21, Methyl (3-(3-fluoro-4-((2-methyl-1H-imidazol-1-yl)methyl)phenyl)-5-isobutyl-thio-phen-2-yl)sulfonylcarbamate]
5 | 23.3 | 23.8 | 51.7 | -15.3 | 18.9 | 1.6 | 45.9 | 53.9 | 29 | 44 | Cc1nccn1Cc1ccc(-c2cc(CC(C)C)sc2S(=O)(=O)NC(=O)C(C)(C)C)cc1F [Example 22, N-((3-(3-Fluoro-4-((2-methyl-1H-imidazol-1-yl)methyl)phenyl)-5-isobutylthiophen-2-yl)sulfonyl)pivalamide]
6 | 47 | 12.5 | -14.1 | 16.7 | 5.8 | 16.8 | 51.2 | 74.7 |  |  | CC(C)Cc1cc(-c2ccc(Cn3ccnc3C(C)(C)C)c(F)c2)c(S(=O)(=O)NC(=O)OCC(C)(C)O)s1 [Example 23, 2-Hydroxy-2-methylpropyl (3-(4-((2-(tert-butyl)-1H-imidazol-1-yl)methyl)-3-fluoro-Phenyl)-5-isobutylthiophen-2-yl)sulfonylcarbamate]
7 |  |  |  |  |  |  |  |  | > 60 | > 60 | CCc1nccn1Cc1ccc(-c2cc(CC(C)C)sc2S(=O)(=O)NC(=O)OCCO)cc1F [Example 24, 2-Hydroxyethyl (3-(4-((2-ethyl-1H-imidazol-1-yl)methyl)-3-fluorophenyl)-5-isobutyl-thiophen-2-yl)sulfonylcarbamate]
8 | 50.4 | 26.6 | -28.7 | 23.5 | 17.1 | 20 | 0.5 | 21.9 | > 60 | > 60 | CCc1nccn1Cc1ccc(-c2cc(CC(C)C)sc2S(=O)(=O)NC(=O)OC)cc1F [Example 25, Methyl (3-(4-((2-ethyl-1H-imidazol-1-yl)methyl)-3-fluorophenyl)-5-isobutylthiophen-2-yl)sulfonylcarbamate]

Row | Compound | inhibition at 10 µM (CYP2C9) [%] | inhibition at 10 µM (CYP3A4&5) [%] | inhibition at 10 µM (CYP3A4) [%] | inhibition at 10 µM (CYP1A) [%] | inhibition at 10 µM (CYP2D6) [%] | inhibition at 10 µM (CYP2B6) [%] | inhibition at 10 µM (CYP2C19) [%] | inhibition at 10 µM (CYP2C8) [%] | half-life at 1 uM [1, 2] [min] | half-life at 1 uM [1, 3] [min]
9 | Cc1nccn1Cc1ccc(-c2cc(CC(C)C)sc2S(=O)(=O)NC(=O)OCCO)cc1F.O=C(O)C(F)(F)F [Example 4, 2-Hydroxyethyl (3-(3-fluoro-4-((2-methyl-1H-imidazol-1-yl)methyl)phenyl)-5-isobutyl-thiophen-2-yl)sulfonylcarbamate trifluoroacetic acid] | 58 | 22 | -66 | 27 | 54 | 55 | 31 | 54 | > 60 | > 60
10 | CCc1nccn1Cc1ccc(-c2cc(CC(C)C)sc2S(=O)(=O)NC(=O)OCCC(F)(F)F)cc1F.O=C(O)C(F)(F)F [Example 5, 3,3,3-Trifluoropropyl (3-(4-((2-ethyl-1H-imidazol-1-yl)methyl)-3-fluorophenyl)-5-iso-butyl-thiophen-2-yl)sulfonylcarbamate trifluoroacetic acid] | 71 | 5 | -24 | 35 | 49 | 37 | 63 | 64 | 18 | 55

Reference: US20230348444A1, “NOVEL COMPOUNDS FOR USE IN THE TREATMENT OF DISEASES ASSOCIATED WITH ANGIOTENSIN II” (Vicore Pharma AB, priority 2020, published 2023)
